Data as given in patent publication US20230339915A1 (Vertex Pharmaceuticals Incorporated, priority 2020, published 2023).

Experiments:
[1] = target: NL20 human bronchial epithelial cells expressing human Z-AAT (Homo sapiens (Human), UniProt P01009, E366K); test: AAT Function Assay (MSD Assay NL20-SI Cell Line); format: cell-based; settings: functionally active AAT (AAT-hNE complex, MSD) in supernatant of NL20 cells expressing human Z-AAT; read-out: NL20 Functional EC50
Description: A. AAT Function Assay (MSD Assay NL20-SI Cell Line)
Alpha-1 antitrypsin (AAT) is a SERpIN (serine protease inhibitor) that inactivates enzymes by binding to them covalently. This assay measured the amount of functionally active AAT in a sample in the presence of the disclosed Compounds 1-227 by determining the ability of AAT to form an irreversible complex with human neutrophil Elastase (hNE). In practice, the sample (cell supernatant, blood sample, or other) was incubated with excess hNE to allow AAT-Elastase complex to be formed with all functional AAT in the sample. This complex was then captured to a microplate coated with an anti-AAT antibody. The complex captured to the plate was detected with a labeled anti-Elastase antibody and quantitated using a set of AAT standards spanning the concentration range present in the sample. Meso Scale Discovery (MSD) plate reader, Sulfo-tag labeling, and microplates were used to provide high sensitivity and wide dynamic range.
Instrument(S): • Meso Sector S600 • Bravo • Washer dispenser • Multidrop Combi
Day 1 Cell Culture • 1. Harvest NL20 human bronchial epithelial cells expressing human Z-AAT in OptiMEM™ containing Pen/Strep (P/S) • 2. Seed at 16,000 cells/well in 30 μL (384 well plate) • 3. Centrifuge plates briefly up to speed (1200 rpm) and place into 37° C. incubator overnight
Day 2: Compound Addition and Coating Plates with Capture Antibody
Compound Addition: • 1. Dispense 40 μL of OptiMEM™ (P/S) with doxycycline (1:1000 stock=0.1 μM final) to each well of the compound plate using a multidrop Combi in hood • 2. Remove cell plate from incubator, flip/blot and take immediately to Bravo to transfer compounds • 3. Return plates to incubator overnight
Coat MSD Plates • 1. Dilute capture antibody (Polyclonal Goat anti-AAT) to 5 μg/mL (1:200) in PBS (no BSA). • 2. Dispense 25 μL of diluted capture antibody into all wells of MSD 384-well High Bind plate using the Multidrop equipped with a standard cassette. • 3. Incubate overnight at 4° C.
Prepare Blocker A (BSA) Solutions • 1. Prepare solution of 5% MSD Blocker A (BSA) following the manufacturer's instructions. • 2. Further dilute the 5% MSD Blocker A in PBS to 1% (Blocker A) as needed.
Block Plates • 1. Wash plate 1× with 50 μL Wash buffer (PBS+0.5% Tween 20), and adds 35 μL 5% Block A buffer to block non-specific binding on washer dispenser • 2. Rotate plates on shaker for 1 hour at 600 rpm
Prepare M-AA T Standards • 1. Dilute M-AAT stock to 1.6 μg/mL in 1% BSA Blocker A (Stock in −70° C.); then prepare 12×1:2 serial dilutions in 1% Blocker A • 2. The top starting final concentration on MSD plate is 320 ng/mL. These dilutions correspond to a final concentration of 320, 160, 80, 40, 20, 10, 5, 2.5, 1.25, 0.625, 0.312, 0.156 ng/mL.
Dilution Plate • 1. Add 80 μL of 1% Assay buffer to all wells except columns 1/24 (standards) with Multidrop Combi • 2. Add diluted standards to columns 1 and 24 • 3. Centrifuge dilution plates 1200 rpm briefly
Cell Plate • 1. Aspirate columns which will have the standards from the cell plates in the hood using 16-pin aspirator
Prepare Human Neutrophil Elastase (hNE) • 1. Prepare 1 μg/mL Human Neutrophil Elastase by diluting in 1% Blocker A. • a. Small 100 μg vial—add 1 mL PBS (100 μg/mL) • i. This can then be diluted 1:100 in 1% Assay Buffer for a final 1 μg/mL concentration
MSD—add hNE (20 μL/well) • 1. After the MSD plate has blocked for at least 1 hour, wash plate 1× with 50 μL Wash buffer (PBS+0.5% Tween 20) and then add 20 μL hNE to each well
Bravo—Cell Plate—Dilution Plate—MSD Plate
Using the Bravo aspirate 10 μL from the cell plate, transfer to the dilution plate (9-fold dilution) • 1. Mix 25 μL 3×, then aspirate 5 μL, transfer to MSD plate (5-fold dilution) • 2. Mix 10 μL 3×. Total dilution is 45 fold. • 3. Shake plates at 600 rpm for 1.5 hours
Add Functional Detection hNE Antibody • 1. Wash plate 1× with wash buffer • 2. […]

[2] = target: purified Z-AAT protein from human plasma (Homo sapiens (Human), UniProt P01009, E366K); test: Biochemical Assay (Z-AAT Elastase Activity Assay); settings: purified Z-AAT pre-incubated with compound 1 hour, then human neutrophil elastase and fluorescent substrate
Text: B. Biochemical Assay (Z-AAT Elastase Activity Assay)
This assay measured the modulation of Compounds 1-227 on Z-AAT SERpIN activity using purified Z-AAT protein and purified human neutrophil elastase (hNE). Normally, when active monomeric Z-AAT encounters a protease such as trypsin or elastase, it forms a 1:1 covalent “suicide” complex in which both the AAT and protease are irreversibly inactivated. However, compounds binding to Z-AAT can lead to a decrease in SERpIN activity. In such cases, when a protease encounters compound-bound Z-AAT, the protease cleaves and inactivates Z-AAT without itself being inactivated.
Reagents • PBS buffer (media prep)+0.01% BRIJ35 detergent (Calbiochem catalog #203728) Opti-MEM media (Fisher 11058-021) • Human neutrophil elastase (hNE, Athens Research #16-14-051200) • 3.4 μM stock (0.1 mg/mL) prepared in 50 mM Na Acetate, pH 5.5, 150 mM NaCl, stored at −80° C. • Elastase substrate V (ES V, fluorescent peptide substrate MeOSuc-Ala-Ala-Pro-Val-AMC, Calbiochem catalog #324740) • 20 mM stock in DMSO, stored at −20° C. • Purified Z-AAT protein from human plasma; • 12.9 μM (0.67 mg/mL) Z-AAT Vertex Cambridge Sample 4942, from patient • #061-SSN, stored at −80 C
Plates • Corning 4511 (384 well black low volume)
Instruments • PerkinElmer® EnVision™
Pre-Incubation of Z-AAT with Compounds • 1. 7.5 μL of Z-AAT (20 nM) was incubated with compounds 1-227 in a GCA plate for 1 hour at room temperature
Addition of hNE • 1. 7.5 ul of HNE solution (3 nM in PBS+0.01% BRIJ35) added into GCA plate • 2. Incubate plate for 30 minutes to allow Z-AAT/HNE suicide complex formation.
Addition of Substrate and Read Plate on PE Envision • 1. 7.5 μL of substrate (300 μM solution of elastase substrate (ES V) in PBS+0.01% BRIJ35) dispensed per well into GCA plate • 2. Immediately read on Envision.

purified Z-AAT protein from human plasma, sequence (P01009 25-418 E366K limits assumed): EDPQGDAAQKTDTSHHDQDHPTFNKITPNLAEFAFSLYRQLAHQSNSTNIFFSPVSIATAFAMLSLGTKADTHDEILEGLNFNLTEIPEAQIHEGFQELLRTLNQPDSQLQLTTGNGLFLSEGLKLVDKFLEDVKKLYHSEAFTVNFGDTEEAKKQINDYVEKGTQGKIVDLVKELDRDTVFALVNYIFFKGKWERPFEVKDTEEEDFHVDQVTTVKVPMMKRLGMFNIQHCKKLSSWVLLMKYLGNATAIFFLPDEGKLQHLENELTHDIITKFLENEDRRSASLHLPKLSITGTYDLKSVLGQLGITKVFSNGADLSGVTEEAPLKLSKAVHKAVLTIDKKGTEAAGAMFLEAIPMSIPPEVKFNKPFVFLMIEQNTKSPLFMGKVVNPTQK
NL20 human bronchial epithelial cells expressing human Z-AAT, sequence (P01009 25-418 E366K limits assumed): as above

Structure (SMILES)	EC50 [1] [nM]	IC50 [2] [µM]
COCC(C)(C)c1c(CC2(C(=O)O)CC2)c2cc(O)ccc2n1-c1ccc(F)c(C)c1 [Compound 81]	500 to 2000	> 30
O=C(O)C1CC2(C1)CC(c1c(C3CCOCC3)n(-c3ccccc3)c3ccc(O)cc13)C2 (centres unmarked) [Compound 54]	> 2000	> 30
Cc1cc(-n2c(C3CCOCC3)c(CC3(C(=O)O)CCC3)c3cc(O)ccc32)ccc1F [Compound 13]	> 2000	> 30
Cc1cc(-n2c(C3CCOCC3)c([C@H]3CC4(C[C@H](C(=O)O)C4)C3)c3cc(O)ccc32)ccc1F (some centres unmarked) [Compound 12]	< 500	> 5
O=C(O)[C@H]1CC2(C1)C[C@H](c1c(C3CCOCC3)n(-c3ccc(F)cc3)c3ccc(O)cc31)C2 (some centres unmarked) [Compound 50]	500 to 2000	> 30
Cc1cc(-n2c(C(C)C)c([C@H]3C[C@@H](C(=O)O)C3)c3cc(O)c(F)cc32)ccc1F [Compound 69]	> 2000	> 5
O=C(O)[C@]1(C(F)(F)F)C[C@H](c2c(C3CCOCC3)n(-c3ccc(F)c(Cl)c3)c3ccc(O)cc32)C1 [Compound 38]	> 2000	> 30
O=C(O)[C@H]1CC2(C1)C[C@H](c1c(C3CCOCC3)n(-c3ccc(F)c(F)c3)c3ccc(O)cc31)C2 (some centres unmarked) [Compound 42]	500 to 2000	> 30
Cc1cc(-n2c(C3CCOCC3)c([C@H]3C[C@@H](C(=O)O)C3)c3cc(O)ccc32)ccc1F [Compound 21]	> 2000	> 30
Cc1c(C#N)c2cc(O)ccc2n1-c1ccc(F)cc1 [Compound 182, 1-(4-fluorophenyl)-5-hydroxy-2-methyl-1H-indole-3-carbonitrile]	> 2000	
Cc1cc(-n2c(C3CCOCC3)c([C@H]3CC[C@H](C(=O)O)CC3)c3cc(O)ccc32)ccc1F [Compound 1, trans-4-(1-(4-fluoro-3-methylphenyl)-5-hydroxy-2-(tetrahydro-2H-pyran-4-yl)-1H-indol-3-yl)cyclohexane-1-carboxylic acid]		> 30
Cc1c(C(C)C#N)c2cc(O)ccc2n1-c1ccc(F)cc1 (centres unmarked) [Compound 183, 2-(1-(4-fluorophenyl)-5-hydroxy-2-methyl-1H-indol-3-yl)propanenitrile]	> 2000	
Cc1cc(-n2c(C(C)C)c([C@H]3C[C@@H]3C(=O)O)c3cc(O)c(F)cc32)ccc1F [Compound 129]	500 to 2000	

The next lines start with the values.

EC50 [1] [nM]	IC50 [2] [µM]	Structure (SMILES)
> 2000	> 30	Cc1cc(-n2c(C(C)C)c([C@H]3C[C@@](C)(C(=O)O)C3)c3cc(O)ccc32)ccc1F [Compound 94]
500 to 2000	> 30	Cc1cc(-n2c(C#N)c(-c3ccc(C(=O)O)cc3)c3cc(O)ccc32)ccc1F [Compound 175]
500 to 2000	2 to 5	Cc1cc(-n2c(C(C)C)c(-c3cncc(C(=O)O)c3)c3cc(O)ccc32)ccc1F [Compound 172]
> 2000	> 30	CCc1c([C@H]2C[C@@H]2C(=O)O)c2cc(O)ccc2n1-c1ccc(F)c(C)c1 [Compound 127]
> 2000		Cc1cc(-n2c(C(C)C)c([C@H]3C[C@@H](c4n[nH]c(=O)o4)C3)c3cc(O)ccc32)ccc1F [Compound 222, cis-5-[3-[1-(4-fluoro-3-methyl-phenyl)-5-hydroxy-2-isopropyl-indol-3-yl]cyclobutyl]-3H-1,3,4-oxadiazol-2-one]
< 500		Cc1cc(-n2c(C(C)C)c(-c3ccc(C(=O)O)cc3)c3cc(O)ccc32)ccc1F [Compound 167]
500 to 2000		Cc1cc(-n2c(C(C)C)c(-c3ccc(C(=O)O)cc3C)c3cc(O)ccc32)ccc1F [Compound 170]
> 2000		Cc1cc(-n2c(C(C)C)c([C@H]3C[C@H](c4n[nH]c(=O)o4)C3)c3cc(O)ccc32)ccc1F [Compound 221, Trans-5-[3-[1-(4-fluoro-3-methyl-phenyl)-5-hydroxy-2-isopropyl-indol-3-yl]cyclobutyl]-3H-1,3,4-oxadiazol-2-one]
500 to 2000		Cc1cc(-n2c(C(C)C)c(C3CC3(C)C(=O)O)c3cc(O)ccc32)ccc1F (centres unmarked) [Compound 130]
